IC50 data for 55 compounds are collected here from ChEMBL document CHEMBL1135293, “Amino acid derived sulfonamide hydroxamates as inhibitors of procollagen C-proteinase. Part 2: Solid-phase optimization of side chains” (Bioorg Med Chem Lett, 2002).

The first assay addresses T1, Bone morphogenetic protein 1 (Homo sapiens, UniProt P13497).
T1 sequence (P13497 whole entry): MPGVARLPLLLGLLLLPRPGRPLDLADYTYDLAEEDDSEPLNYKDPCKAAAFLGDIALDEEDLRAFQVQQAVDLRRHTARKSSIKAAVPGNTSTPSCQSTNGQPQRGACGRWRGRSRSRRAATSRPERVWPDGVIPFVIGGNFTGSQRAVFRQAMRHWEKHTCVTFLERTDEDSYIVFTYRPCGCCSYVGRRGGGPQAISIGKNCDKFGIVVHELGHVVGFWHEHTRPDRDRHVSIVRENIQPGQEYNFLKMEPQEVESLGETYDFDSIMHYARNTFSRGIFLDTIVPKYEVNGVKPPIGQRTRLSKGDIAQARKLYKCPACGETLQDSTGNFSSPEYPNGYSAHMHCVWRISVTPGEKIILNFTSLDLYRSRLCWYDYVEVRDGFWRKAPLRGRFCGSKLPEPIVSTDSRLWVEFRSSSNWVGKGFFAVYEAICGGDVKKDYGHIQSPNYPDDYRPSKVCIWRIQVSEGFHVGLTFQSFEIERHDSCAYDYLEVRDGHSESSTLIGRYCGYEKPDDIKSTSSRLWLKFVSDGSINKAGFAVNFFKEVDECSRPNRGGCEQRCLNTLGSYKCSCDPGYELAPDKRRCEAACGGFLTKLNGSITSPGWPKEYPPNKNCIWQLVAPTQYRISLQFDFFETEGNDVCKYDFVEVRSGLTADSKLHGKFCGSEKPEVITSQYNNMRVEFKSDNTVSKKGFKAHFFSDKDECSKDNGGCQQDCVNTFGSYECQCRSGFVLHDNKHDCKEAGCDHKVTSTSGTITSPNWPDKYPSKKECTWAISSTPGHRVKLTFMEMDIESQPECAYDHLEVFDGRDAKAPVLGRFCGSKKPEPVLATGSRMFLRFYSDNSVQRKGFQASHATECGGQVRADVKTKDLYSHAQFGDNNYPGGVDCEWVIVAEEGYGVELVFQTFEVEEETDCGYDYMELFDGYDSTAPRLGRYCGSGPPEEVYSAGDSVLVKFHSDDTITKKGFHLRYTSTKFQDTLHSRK
The assay can be described thus: Inhibitory activity against Procollagen C-Proteinase (PCP).
On to `COc1ccc(S(=O)(=O)N(Cc2ccc(C)c([N+](=O)[O-])c2)[C@H](Cc2cccs2)C(=O)NO)cc1`, for which the half-maximal inhibitory concentration (IC50) is 60 nM. Still for that read-out and setting: the result for `COc1ccc(S(=O)(=O)N(Cc2ccc3c(c2)OCO3)[C@H](Cc2ccc([N+](=O)[O-])cc2)C(=O)NO)cc1` reads 32 nM; that for `COc1ccc(S(=O)(=O)N(Cc2sccc2Oc2ccccc2)[C@H](C)C(=O)NO)cc1`, 40 nM.

`COc1ccc(CSC[C@H](C(=O)NO)N(Cc2ccc3c(c2)OCO3)S(=O)(=O)c2ccc(OC)cc2)cc1` displayed an IC50 of 32 nM. In the case of `COc1ccc(S(=O)(=O)N(Cc2ccc3c(c2)OCO3)[C@H](Cc2cncn2C(c2ccccc2)(c2ccccc2)c2ccccc2)C(=O)NO)cc1`, half-maximal inhibition (IC50) required 36 nM. Same read-out and setting: the result for `COc1ccc(S(=O)(=O)N(Cc2ccc(OC)c(C)c2C)[C@H](C)C(=O)NO)cc1` reads 220 nM.

As to `COc1ccc(S(=O)(=O)N(Cc2ccccc2C(F)(F)F)[C@H](C)C(=O)NO)cc1`, half-maximal inhibition (IC50) was put at 6 nM. In the case of `COc1ccc(S(=O)(=O)N(Cc2ccc(C(C)C)cc2)[C@H](C)C(=O)NO)cc1`, the IC50 came to 230 nM. In the case of `COc1ccc(S(=O)(=O)N(Cc2sc3scc(C)c3c2C)[C@H](C)C(=O)NO)cc1`, the IC50 turned out to be 60 nM. Same read-out and setting: the result for `COc1ccc(S(=O)(=O)N(Cc2ccc3c(c2)OCO3)[C@H](CCCNC(=O)OC(C)(C)C)C(=O)NO)cc1` reads 52 nM; that for `COc1ccc(S(=O)(=O)N(CCn2cccc2)[C@H](C)C(=O)NO)cc1`, 170 nM; that for `COc1ccc(S(=O)(=O)N(Cc2ccc3c(c2)OCO3)[C@@H](C(=O)NO)C(=O)C(N)CNC(=O)OCc2ccccc2)cc1` (stereo not given in full), 14 nM. With `COc1ccc(S(=O)(=O)N(Cc2ccc3c(c2)OCO3)[C@@H](C(=O)NO)C(=O)C(N)CNC(=O)OCC2c3ccccc3-c3ccccc32)cc1` (stereo not given in full), it took 0.024 nM to reach half-maximal inhibition (IC50). Same read-out and setting: the result for `COc1ccc(S(=O)(=O)N(Cc2ccc(F)c(F)c2)[C@H](C)C(=O)NO)cc1` reads 76 nM. On the same count and under the same terms, the result for `COc1ccc(S(=O)(=O)N(Cc2ccc3c(c2)OCO3)[C@@H](C(=O)NO)C(C)C)cc1` reads 53 nM; that for `COc1ccc(S(=O)(=O)N(Cc2cccc3ccccc23)[C@H](C)C(=O)NO)cc1`, 90 nM. `COc1ccc(S(=O)(=O)N(Cc2ccc(Br)cc2)[C@H](Cc2cccs2)C(=O)NO)cc1` yielded an IC50 of 70 nM. The compound `COc1ccc(S(=O)(=O)N(Cc2ccc3c(c2)OCO3)[C@H](Cc2cn(C)cn2)C(=O)NO)cc1` showed an IC50 of 50 nM. `COc1ccc(S(=O)(=O)N(Cc2cc(F)cc(F)c2)[C@H](C)C(=O)NO)cc1` came in with an IC50 of 140 nM. Still for that read-out and setting: the figure for `COc1ccc(S(=O)(=O)N(Cc2ccc3c(c2)OCO3)[C@H](CSc2ccc(C)cc2)C(=O)NO)cc1` is 45 nM. `COc1ccc(C[C@H](C(=O)NO)N(Cc2ccc3c(c2)OCO3)S(=O)(=O)c2ccc(OC)cc2)cc1` returned an IC50 of 40 nM. As for `COc1ccc(S(=O)(=O)N(Cc2ccc(SC)cc2)[C@H](C)C(=O)NO)cc1`, half-maximal inhibition (IC50) required 80 nM. Still for that read-out and setting: the result for `COc1ccc(S(=O)(=O)N(Cc2cccc(C)c2[N+](=O)[O-])[C@H](C)C(=O)NO)cc1` reads 120 nM; that for `COc1ccc(S(=O)(=O)N(Cc2ccc3c(c2)OCO3)[C@@H](C(=O)NO)C(=O)C(N)CNC(=O)OCc2ccccc2Br)cc1` (stereo not given in full), 18 nM. The compound `COc1ccc(S(=O)(=O)N(Cc2ccc3cc(C)ccc3c2)[C@H](C)C(=O)NO)cc1` gave an IC50 of 220 nM. The compound `COc1ccc(S(=O)(=O)N(Cc2cccc(Br)c2)[C@H](C)C(=O)NO)cc1` had an IC50 of 93 nM. Same read-out and setting: the result for `C=CCOC(=O)NCC(N)C(=O)[C@H](C(=O)NO)N(Cc1ccc2c(c1)OCO2)S(=O)(=O)c1ccc(OC)cc1` (stereo not given in full) reads 23 nM; that for `COc1ccc(S(=O)(=O)N(Cc2ccc3c(c2)OCO3)[C@H](Cc2cncn2Cc2ccccc2)C(=O)NO)cc1`, 27 nM; that for `COc1ccc(S(=O)(=O)N(Cc2ccc(Cl)c(Cl)c2)[C@H](C)C(=O)NO)cc1`, 120 nM. As to `COc1ccc(S(=O)(=O)N(Cc2ccc(Cl)c([N+](=O)[O-])c2)[C@H](C)C(=O)NO)cc1`, the IC50 is 30 nM. `COc1ccc(S(=O)(=O)N(Cc2ccc3c(c2)OCO3)[C@H](COC(C)(C)C)C(=O)NO)cc1` displayed an IC50 of 23 nM. Same read-out and setting: the figure for `C=CCOc1ccc2ccc(CN([C@H](C)C(=O)NO)S(=O)(=O)c3ccc(OC)cc3)cc2c1` is 130 nM.

For the compound `COc1ccc(S(=O)(=O)N(Cc2ccc3c(c2)OCO3)[C@H](CCCCNC(=O)OCc2ccccc2)C(=O)NO)cc1`, the IC50 amounted to 16 nM. For the compound `COc1ccc(S(=O)(=O)N(Cc2ccc3c(c2)OCO3)[C@@H](C(=O)NO)C(=O)C(N)CNC(=O)OCc2ccccc2Cl)cc1` (stereo not given in full), it took 4.6 nM to reach half-maximal inhibition (IC50). On to `COc1ccc(S(=O)(=O)N(Cc2ccc(Br)cc2)[C@H](C)C(=O)NO)cc1`, for which the IC50 is 37 nM. On the same count and under the same terms, the figure for `COc1ccc(S(=O)(=O)N(Cc2cc(C)on2)[C@H](C)C(=O)NO)cc1` is 230 nM.

For `COc1ccc(S(=O)(=O)N(Cc2cnc(Cl)s2)[C@H](C)C(=O)NO)cc1`, the half-maximal inhibitory concentration (IC50) came to 180 nM. The same measure, in the same setting: the result for `COc1ccc(S(=O)(=O)N(Cc2cc(C(F)(F)F)cc(C(F)(F)F)c2)[C@H](C)C(=O)NO)cc1` reads 220 nM; that for `COc1ccc(S(=O)(=O)N(Cc2ccc3c(c2)OCO3)[C@H](Cc2cccs2)C(=O)NO)cc1` (stereo in doubt; 2), 0.2 nM. For `COc1ccc(S(=O)(=O)N(Cc2ccc3c(c2)OCO3)[C@H](Cc2cccs2)C(=O)NO)cc1` (stereo in doubt; 41), the IC50 is 0.2 nM.

Another assay has as its target T1, Bone morphogenetic protein 1. The assay can be described thus: Inhibitory activity against procollagen C-proteinase (PCP).
`COc1ccc(S(=O)(=O)N(Cc2ccc3c(c2)OCO3)[C@H](Cc2ccc(Br)s2)C(=O)O)cc1` had a concentration for half-maximal inhibition (IC50) of 670 nM. The compound `COc1ccc(S(=O)(=O)N(Cc2ccc(F)c(F)c2)[C@H](Cc2cccs2)C(=O)NO)cc1` came in with an IC50 of 80 nM. On the same count and under the same terms, the result for `COC(=O)c1ccc(CN([C@H](Cc2cccs2)C(=O)NO)S(=O)(=O)c2ccc(OC)cc2)cc1` reads 110 nM; that for `COc1ccc(S(=O)(=O)N(Cc2ccc(Cl)cc2Cl)[C@H](Cc2cccs2)C(=O)NO)cc1`, 860 nM. Still for that read-out and setting: the figure for `COc1ccc(S(=O)(=O)N(Cc2ccc(C)cc2)[C@H](Cc2cccs2)C(=O)NO)cc1` is 110 nM; for `CCCCN(C)C(=N)NCCCC[C@H](C(=O)O)N(Cc1ccc2c(c1)OCO2)S(=O)(=O)c1ccc(OC)cc1` it is 200 nM. `COc1ccc(S(=O)(=O)N(Cc2cccc(I)c2)[C@H](C)C(=O)O)cc1` registered an IC50 of 280 nM. Same read-out and setting: the figure for `CCN(CC)C(=N)NCCC[C@H](C(=O)O)N(Cc1ccc2c(c1)OCO2)S(=O)(=O)c1ccc(OC)cc1` is 28 nM; for `C#CC[C@H](C(=O)O)N(Cc1ccc2c(c1)OCO2)S(=O)(=O)c1ccc(OC)cc1` it is 10 nM; for `COc1ccc(S(=O)(=O)N(Cc2ccc(Br)cc2F)[C@H](C)C(=O)O)cc1` it is 490 nM. For the compound `COc1ccc(S(=O)(=O)N(Cc2ccc3c(c2)OCO3)[C@H](Cc2ccco2)C(=O)O)cc1`, inhibition was half-maximal at 470 nM (IC50). The same measure, in the same setting: the figure for `COc1ccc(S(=O)(=O)N(Cc2ccc3c(c2)OCO3)[C@H](Cc2ccncc2)C(=O)O)cc1` is 592 nM; for `COc1ccc(S(=O)(=O)N(CCn2cccc2)[C@H](Cc2cccs2)C(=O)NO)cc1` it is 610 nM. On the same count and under the same terms, the figure for `COc1ccc(S(=O)(=O)N(Cc2cccc(C)c2F)[C@H](Cc2cccs2)C(=O)NO)cc1` is 150 nM; for `COc1ccc(S(=O)(=O)N(Cc2cc(C(F)(F)F)cc(C(F)(F)F)c2)[C@H](Cc2cccs2)C(=O)NO)cc1` it is 590 nM.

What is called IC50 is the midpoint of a concentration-inhibition curve. A lower IC50 goes with greater potency in that assay.
